Measured values: ChEMBL document CHEMBL1201862, “PubChem BioAssay data set” (2004)
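Briefly, cells in 96-well plates were exposed to five compound concentrations for 48 h, and endpoints were estimated by linear interpolation. At the GI50, growth is halved.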 Calls of active or inactive are those of the source. Cut-off read from the data, not from the text of the source: active = GI50 up to about 1.1 µM and inactive = higher.

What was measured:
Test in all cases: inhibition of tumour cell growth, NCI panel, 48 h
[1] = system: A498
[2] = system: MDA-MB-435
[3] = system: TK-10
[4] = system: HOP-62
[5] = system: OVCAR-3
[6] = system: Malme-3M
[7] = system: CAKI-1
[8] = system: SW-620
[9] = system: PC-3
[10] = system: UO-31
[11] = system: NCI-H23
[12] = system: SK-MEL-5
[13] = system: HCT-15
[14] = system: UACC-62
[15] = system: SF-268
[16] = system: NCI-H460
[17] = system: SNB-19
[18] = system: COLO 205
[19] = system: NCI-H226
[20] = system: SK-MEL-2

| SMILES | GI50 [1] | GI50 [2] | GI50 [3] | GI50 [4] | GI50 [5] | GI50 [6] | GI50 [7] | GI50 [8] | GI50 [9] | GI50 [10] | GI50 [11] | GI50 [12] | GI50 [13] | GI50 [14] | GI50 [15] | GI50 [16] | GI50 [17] | GI50 [18] | GI50 [19] | GI50 [20] |
| --- | --- | --- | --- | --- | --- | --- | --- | --- | --- | --- | --- | --- | --- | --- | --- | --- | --- | --- | --- | --- |
| N#CC(C#N)SCc1ccccc1 | > 71.4 µM (inactive) | 17.6 µM (inactive) | 26.5 µM (inactive) | 15.7 µM (inactive) | 23.8 µM (inactive) | 47.8 µM (inactive) | 17.7 µM (inactive) | 4.59 µM (inactive) | 2.79 µM (inactive) | 20.1 µM (inactive) | 10.5 µM (inactive) | 11.9 µM (inactive) | 31.1 µM | 34.4 µM (inactive) | 29.4 µM (inactive) | 14.7 µM (inactive) | 21 µM (inactive) | 15.6 µM (inactive) | 30.1 µM (inactive) | 7.36 µM (inactive) |
| NC1CC(=O)c2c(Cl)sc(Cl)c21 (stereo unspecified) | 15.3 µM (inactive) | 4.62 µM (inactive) | 2.43 µM (inactive) | 10.7 µM (inactive) | 6.47 µM (inactive) | 2.22 µM (inactive) | 2.7 µM (inactive) | 1.68 µM (inactive) | 6.21 µM (inactive) | 9.86 µM (inactive) | 10.5 µM (inactive) | 8.79 µM (inactive) | 1.63 µM | 2.64 µM (inactive) | 15.8 µM (inactive) | 14.5 µM (inactive) | 13.2 µM (inactive) | 1.63 µM (inactive) | 14.4 µM (inactive) | 12.4 µM (inactive) |
| CCCSc1cc(Cl)c(C)cc1S(=O)(=O)n1ccnc1OCCCN(C)C | > 100 µM (inactive) | > 100 µM (inactive) | > 100 µM (inactive) | > 100 µM (inactive) | > 100 µM (inactive) | > 100 µM (inactive) | > 100 µM (inactive) | > 100 µM (inactive) | > 100 µM (inactive) | > 100 µM (inactive) | > 100 µM (inactive) | > 100 µM (inactive) | > 100 µM | > 100 µM (inactive) | > 100 µM (inactive) | > 100 µM (inactive) | > 100 µM (inactive) | > 100 µM (inactive) | > 100 µM (inactive) | > 100 µM (inactive) |
| O=C(CNC(=O)OCc1ccccc1)NCCCCC(NC(=O)OCc1ccccc1)C(=O)NC(CCCCNC(=O)CNC(=O)OCc1ccccc1)C(=O)OCc1ccccc1 (stereo unspecified) | > 62.5 µM (inactive) | > 62.5 µM (inactive) | > 62.5 µM (inactive) | > 62.5 µM (inactive) | > 62.5 µM (inactive) | > 62.5 µM (inactive) | > 62.5 µM (inactive) | > 62.5 µM (inactive) | > 62.5 µM (inactive) | > 62.5 µM (inactive) | > 62.5 µM (inactive) | > 62.5 µM (inactive) | > 62.5 µM | > 62.5 µM (inactive) | > 62.5 µM (inactive) | > 62.5 µM (inactive) | > 62.5 µM (inactive) |  | > 62.5 µM (inactive) | > 62.5 µM (inactive) |
| COc1c(/C=C/C=O)cc2c(c1OC)OCO2 | 1.21 µM (inactive) | 49.3 µM (inactive) | 40.4 µM (inactive) | 25.5 µM (inactive) | 33.2 µM (inactive) | 20.7 µM (inactive) | 5.21 µM (inactive) | 51.2 µM (inactive) | 34.5 µM (inactive) | 35.9 µM (inactive) | 30.4 µM (inactive) | 21.1 µM (inactive) | 15.3 µM | 19.3 µM (inactive) | 41.1 µM (inactive) | 14.7 µM (inactive) | 16.4 µM (inactive) | > 100 µM (inactive) | 2.96 µM (inactive) | 23.4 µM (inactive) |
| Clc1cccc(N/N=N/c2ccc(-c3nc4ccccc4s3)cc2)c1 | > 100 µM (inactive) | 30.6 µM (inactive) | 94.6 µM (inactive) | > 100 µM (inactive) | 51.5 µM (inactive) | 26.6 µM (inactive) | 53.8 µM (inactive) | 33.7 µM (inactive) | 41.6 µM (inactive) | > 100 µM (inactive) | 24.5 µM (inactive) | 25.4 µM (inactive) | 32.4 µM | 25.2 µM (inactive) |  | 50.9 µM (inactive) | 86.1 µM (inactive) | > 100 µM (inactive) | 94.8 µM (inactive) | 21.2 µM (inactive) |
| Cc1cc(NS(=O)(=O)c2ccc(Nc3c4ccccc4nc4ccc(C(=O)Nc5ccc(S(N)(=O)=O)cc5)cc34)cc2)no1 | > 100 µM (inactive) | > 100 µM (inactive) | > 100 µM (inactive) | > 100 µM (inactive) | > 100 µM (inactive) | > 100 µM (inactive) | > 100 µM (inactive) | > 100 µM (inactive) | > 100 µM (inactive) | > 100 µM (inactive) | > 100 µM (inactive) | > 100 µM (inactive) | > 100 µM | > 100 µM (inactive) | > 100 µM (inactive) | > 100 µM (inactive) | > 100 µM (inactive) | > 100 µM (inactive) | > 100 µM (inactive) | > 100 µM (inactive) |
| CSc1nc(=O)n(CCC#N)nc1SC | > 100 µM (inactive) | 23.1 µM (inactive) | 40.2 µM (inactive) | > 100 µM (inactive) | 16.1 µM (inactive) | 15.2 µM (inactive) | > 100 µM (inactive) | 21 µM (inactive) | 66.5 µM (inactive) | 51.8 µM (inactive) | 55.3 µM (inactive) | 19.1 µM (inactive) | 21.9 µM | 32.3 µM (inactive) | 27.9 µM (inactive) | > 100 µM (inactive) | > 100 µM (inactive) | 19.5 µM (inactive) | 39.3 µM (inactive) | 14.5 µM (inactive) |
| Cc1ccc(S(=O)(=O)N2CCSCCSCCN(S(=O)(=O)c3ccc(C)cc3)CCN(S(=O)(=O)c3ccc(C)cc3)CC2)cc1 | > 100 µM (inactive) | > 100 µM (inactive) | > 100 µM (inactive) | > 100 µM (inactive) | > 100 µM (inactive) | > 100 µM (inactive) | > 100 µM (inactive) | > 100 µM (inactive) | > 100 µM (inactive) | > 100 µM (inactive) | > 100 µM (inactive) | > 100 µM (inactive) | > 100 µM |  | > 100 µM (inactive) | > 100 µM (inactive) | > 100 µM (inactive) | > 100 µM (inactive) | > 100 µM (inactive) | > 100 µM (inactive) |
| O=C(CSCC(=O)N/N=C/c1ccncc1)N/N=C/c1ccncc1 | > 100 µM (inactive) | > 100 µM (inactive) | > 100 µM (inactive) | > 100 µM (inactive) | > 100 µM (inactive) | > 100 µM (inactive) | > 100 µM (inactive) | > 100 µM (inactive) | > 100 µM (inactive) | > 100 µM (inactive) | > 100 µM (inactive) | > 100 µM (inactive) | > 100 µM | > 100 µM (inactive) | > 100 µM (inactive) | > 100 µM (inactive) | > 100 µM (inactive) |  | > 100 µM (inactive) | > 100 µM (inactive) |
| O=C(/C=C/c1ccc(Cl)cc1)Oc1ccc(C=C2CCC/C(=C\c3ccc(OC(=O)/C=C/c4ccc(Cl)cc4)cc3)C2=O)cc1 | > 100 µM (inactive) | > 100 µM (inactive) | > 100 µM (inactive) | > 100 µM (inactive) | > 100 µM (inactive) | > 100 µM (inactive) | > 100 µM (inactive) | > 100 µM (inactive) | > 100 µM (inactive) | > 100 µM (inactive) | > 100 µM (inactive) | > 100 µM (inactive) | > 100 µM | > 100 µM (inactive) | > 100 µM (inactive) | > 100 µM (inactive) | > 100 µM (inactive) | > 100 µM (inactive) | > 100 µM (inactive) | > 100 µM (inactive) |
| Cc1ccc(S(=O)(=O)NC(CO)C(=O)O)cc1 (stereo unspecified) | > 100 µM (inactive) | > 100 µM (inactive) | > 100 µM (inactive) | > 100 µM (inactive) | > 100 µM (inactive) | > 100 µM (inactive) | > 100 µM (inactive) | > 100 µM (inactive) | > 100 µM (inactive) | > 100 µM (inactive) | > 100 µM (inactive) | > 100 µM (inactive) | > 100 µM | > 100 µM (inactive) | > 100 µM (inactive) | > 100 µM (inactive) | > 100 µM (inactive) | > 100 µM (inactive) | > 100 µM (inactive) | > 100 µM (inactive) |
| Cc1cccc(N(CCC#N)S(=O)(=O)c2ccccc2)c1 | > 100 µM (inactive) | > 100 µM (inactive) | > 100 µM (inactive) | > 100 µM (inactive) | > 100 µM (inactive) | > 100 µM (inactive) | > 100 µM (inactive) | > 100 µM (inactive) | > 100 µM (inactive) | 97.7 µM (inactive) | > 100 µM (inactive) | 69 µM (inactive) | > 10 µM | > 100 µM (inactive) | > 100 µM (inactive) | > 100 µM (inactive) | > 100 µM (inactive) | > 100 µM (inactive) | > 100 µM (inactive) | > 100 µM (inactive) |
| COc1cc(OCCN(C)C)c2[nH]c(C(=O)N3CC(CCl)c4ccc(N)cc43)cc2c1 (stereo unspecified) | 0.201 µM (active) | 0.0475 µM (active) | 0.0973 µM (active) | 0.0164 µM (active) | 0.0282 µM (active) | 0.0904 µM (active) | 0.022 µM (active) | 0.0441 µM (active) | 0.0241 µM (active) | 0.0195 µM (active) | 0.0269 µM (active) | 0.0342 µM (active) | 0.0418 µM | 0.0404 µM (active) | 0.0264 µM (active) | 0.0147 µM (active) | 0.114 µM (active) | 0.0395 µM (active) | 0.0865 µM (active) | 0.0381 µM (active) |
